Drawing on patent publication US6924302B2, “Substituted triazole diamine derivatives as kinase inhibitors” (Ortho McNeil Pharmaceutical, Inc., priority 2000, dated 2005), this text covers IC50 for 18 molecules.

In general, IC50 refers to the concentration needed to halve the response being measured.

What all share (format): biochemical
Test [1] deals with T1, VEGF-R (vascular endothelial growth factor receptor-2) (Rattus norvegicus, UniProt O08775).
T1 construct: polyhistidine (6xHIS) (N)
As to the kind of experiment: VEGF-R Screening Assay. The conditions noted are these: Table 1; read-out: VEGF-R IC50. How it is done: (§1) 70 μL of the kinase reaction mixture was dispensed into the well of a streptavidin coated FlashPlate™ (Cat. # SMP103, NEN, Boston, Mass.). Then 1 μL of test compound stock in 100% DMSO was added to the wells resulting in a final concentration of 1% DMSO in the reaction with a 100 μL final reaction volume. Next, soluble rat tyrosine kinase containing an N-terminal 6×HIS tag was diluted in 50 mM Tris-HCl pH=8.0, 0.1% BSA at a concentration of 5 ng per μL and 30 μL (150 ng enzyme per test well) was added to each well to initiate the reaction. The reaction was incubated for one hour at 30° C. At the end of the 1-hour incubation, the reaction was terminated by aspirating the reaction mixture from the plate and washing the wells twice with PBS containing 100 mM EDTA. The PLC1 biotinylated peptide substrate became immobilized on the Flashplate™ and the incorporation of ^33P-γ-ATP was measured by reading the plate on a scintillation counter. Inhibition of the enzymatic activity of the VEGF-R was measured by observing a reduced amount of ^33P-γ-ATP incorporated into the immobilized peptide.
(§2) Assays to test compound inhibition of other kinases were preformed using methods that measure the amount of phosphorylation of a biotinylated peptide substrate. Biotinylated peptide substrates were selected from the literature as appropriate for the enzyme being evaluated. […] Assay conditions vary slightly for each protein kinase, for example, insulin receptor kinase requires 10 mM MnCl2 for activity and Calmodulin-dependent protein kinase requires calmodulin and 10 mM CaCl2. These assay conditions are known in the art. The reaction mixture was dispensed into the wells of a streptavidin coated Flashplate and 1 μl drug stock in 100% DMSO was added to a 100 μl reaction volume resulting in a final concentration of 1% DMSO on the reaction. Enzyme was diluted in 50 mM Tris-HCl pH=8.0, 0.1% BSA and add to each well. The reaction was incubated for one hour at 30° C. in the presence of compound. After one hour the reaction mix was aspirated from the plate and the plate was washed with PBS containing 100 mM EDTA. The plate was read on a scintillation counter to determine ^33P-γ-ATP incorporated into the immobilized peptide. Test compounds were assayed in duplicate at 8 concentrations [100 uM, 10 uM, 1 uM, 100 nM, 10 nM, 1 nM, 100 pM, 10 pM]. A maximum and minimum signal for the assay was determined on each plate. The IC50 was calculated from the dose response curve of the percent inhibition of the maximum signal in the assay according to the formula [max signal—background/test compound signal—background (100)=% inhibition] by graphing the percent inhibition against the log concentration of test compound. Known inhibitor compounds appropriate for the kinase being assayed were also included on each plate.
(§3) CDK2 in complex with cyclin A is commercially available (Upstate Biotech, Lake Placid, N.Y.). The CDK4 complex was composed of a mouse CDK4 protein and a mouse Cyclin D1 protein (The mouse CDK4 protein was genetically fused to an N-terminal Flag-epitope tag and the mouse Cyclin D1 protein was fused with an N-terminal AU-1 epitope tag. The genes encoding these proteins were transferred to commercially available baculoviral vectors. The recombinant CDK4/D1 complex was then made by co-infecting commercially available insect cells with viruses carrying these two constructs). […] ERK-1 protein (Discontinued from Calbiochem). EGFR (epidermal growth factor receptor) is purified from human A431 cell membranes (Sigma, St. Louis, Mo., Cat.# E3641).

Test [2] has as its target T2, CDK1:Cyclin-B (Homo sapiens, UniProt P06493).
T2 construct: purchased New England Biolabs 6020; host or cells: insect cells
As to the kind of experiment: CDK1 Screening Assay. The conditions noted are these: Table 1; read-out: CDK1 IC50. How it is done: as §1, with “100 μl” for “100 μL”, “Next, CDK1:Cyclin-B protein” for “Next, soluble rat tyrosine kinase containing an N-terminal 6×HIS tag”, “of 1” for “of 5”, “30 μl (30” for “30 μL (150”, “The histone-H1” for “The PLC1”, “of CDK1” for “of the VEGF-R”
Assays to test compound inhibition of other kinases were preformed using methods that measure the amount of phosphorylation of a biotinylated peptide substrate. Biotinylated peptide substrates were selected from the literature as appropriate for the enzyme being evaluated. […] Assay conditions vary slightly for each protein kinase, for example, insulin receptor kinase requires 10 mM MnCl2 for activity and Calmodulin-dependent protein kinase requires calmodulin and 10 mM CaCl2. These assay conditions are known in the art. The reaction mixture was dispensed into the wells of a streptavidin coated Flashplate and 1 μl drug stock in 100% DMSO was added to a 100 μl reaction volume resulting in a final concentration of 1% DMSO on the reaction. Enzyme was diluted in 50 mM Tris-HCl pH=8.0, 0.1% BSA and add to each well. The reaction was incubated for one hour at 30° C. in the presence of compound. After one hour the reaction mix was aspirated from the plate and the plate was washed with PBS containing 100 mM EDTA. The plate was read on a scintillation counter to determine ^33P-γ-ATP incorporated into the immobilized peptide. Test compounds were assayed in duplicate at 8 concentrations [100 uM, 10 uM, 1 uM, 100 nM, 10 nM, 1 nM, 100 pM, 10 pM]. A maximum and minimum signal for the assay was determined on each plate. The IC50 was calculated from the dose response curve of the percent inhibition of the maximum signal in the assay according to the formula [max signal—background/test compound signal—background (100)=% inhibition] by graphing the percent inhibition against the log concentration of test compound. Known inhibitor compounds appropriate for the kinase being assayed were also included on each plate. […]

Test [3] concerns the target T3, HER2 (human epidermal growth factor receptor-2) (Homo sapiens, UniProt P04626).
T3 construct: begins at amino acid 676 followed by the remainder of the HER2 cytoplasmic domain; polyhistidine (N)
As to the kind of experiment: Kinase Selectivity Assay HER2. The conditions noted are these: Table 1; read-out: HER2 IC50. The procedure: as §2, §3

Where only a bound is given, the exact number is not on record here.

T1 sequence (O08775 786-1343): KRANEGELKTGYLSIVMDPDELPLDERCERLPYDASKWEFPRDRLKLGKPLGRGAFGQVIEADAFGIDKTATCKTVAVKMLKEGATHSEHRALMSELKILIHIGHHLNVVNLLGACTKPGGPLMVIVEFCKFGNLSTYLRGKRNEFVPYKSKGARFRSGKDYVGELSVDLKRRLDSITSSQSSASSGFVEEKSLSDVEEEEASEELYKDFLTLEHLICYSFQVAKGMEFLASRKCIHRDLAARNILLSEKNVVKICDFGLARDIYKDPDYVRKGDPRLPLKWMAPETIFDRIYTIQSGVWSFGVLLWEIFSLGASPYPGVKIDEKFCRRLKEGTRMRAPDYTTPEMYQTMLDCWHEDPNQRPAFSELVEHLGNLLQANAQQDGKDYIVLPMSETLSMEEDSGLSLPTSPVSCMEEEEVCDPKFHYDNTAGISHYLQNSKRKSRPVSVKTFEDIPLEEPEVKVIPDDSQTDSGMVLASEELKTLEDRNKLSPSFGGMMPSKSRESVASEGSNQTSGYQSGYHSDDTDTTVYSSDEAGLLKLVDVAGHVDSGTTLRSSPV
T2 sequence (P06493 whole entry): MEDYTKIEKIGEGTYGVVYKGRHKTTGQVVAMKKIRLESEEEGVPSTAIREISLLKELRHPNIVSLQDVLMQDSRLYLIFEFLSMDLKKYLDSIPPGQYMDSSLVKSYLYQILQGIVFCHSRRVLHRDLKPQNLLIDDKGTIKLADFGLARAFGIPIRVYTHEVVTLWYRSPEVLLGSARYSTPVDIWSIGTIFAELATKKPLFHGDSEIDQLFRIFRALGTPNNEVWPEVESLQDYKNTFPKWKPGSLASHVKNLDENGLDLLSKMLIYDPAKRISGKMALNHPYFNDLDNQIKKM
T2 sequence (P14635 whole entry partner): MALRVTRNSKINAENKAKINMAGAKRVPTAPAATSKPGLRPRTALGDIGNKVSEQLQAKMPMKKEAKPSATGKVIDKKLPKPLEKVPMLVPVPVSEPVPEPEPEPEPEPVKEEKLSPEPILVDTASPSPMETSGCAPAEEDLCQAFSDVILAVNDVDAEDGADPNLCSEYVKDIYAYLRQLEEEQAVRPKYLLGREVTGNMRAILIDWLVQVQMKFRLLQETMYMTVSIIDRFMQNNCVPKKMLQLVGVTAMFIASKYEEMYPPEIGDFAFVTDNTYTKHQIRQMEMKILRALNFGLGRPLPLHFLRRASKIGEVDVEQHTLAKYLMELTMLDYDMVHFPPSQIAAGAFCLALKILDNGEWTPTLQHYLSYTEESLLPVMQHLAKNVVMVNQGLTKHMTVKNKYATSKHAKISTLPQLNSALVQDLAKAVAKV
T3 sequence (P04626 676-1255 limits assumed): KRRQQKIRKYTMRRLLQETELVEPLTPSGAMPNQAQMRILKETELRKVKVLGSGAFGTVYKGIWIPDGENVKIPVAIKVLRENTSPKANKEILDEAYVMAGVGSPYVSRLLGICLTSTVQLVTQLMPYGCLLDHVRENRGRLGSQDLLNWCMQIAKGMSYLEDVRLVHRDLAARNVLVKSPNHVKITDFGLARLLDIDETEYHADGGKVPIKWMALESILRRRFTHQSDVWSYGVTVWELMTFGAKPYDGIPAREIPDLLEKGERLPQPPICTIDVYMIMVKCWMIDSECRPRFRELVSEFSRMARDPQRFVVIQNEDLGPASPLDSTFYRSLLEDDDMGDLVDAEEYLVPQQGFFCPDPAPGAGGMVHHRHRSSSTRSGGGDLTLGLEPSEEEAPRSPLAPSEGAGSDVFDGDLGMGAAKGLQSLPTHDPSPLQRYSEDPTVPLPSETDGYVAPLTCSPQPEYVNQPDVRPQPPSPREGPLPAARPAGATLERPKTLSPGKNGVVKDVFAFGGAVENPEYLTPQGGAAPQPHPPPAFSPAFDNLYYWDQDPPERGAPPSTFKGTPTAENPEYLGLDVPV

For the molecule `Nc1nc(Nc2ccc(S(N)(=O)=O)cc2)nn1C(=O)c1cccnc1` [Cpd 28, 4-[[5-amino-1-(3-pyridinylcarbonyl)-1H-1,2,4-triazol-3-yl]amino]-benzenesulfonamide], the values for the IC50 in test [1] and in test [2] were 13200 nM and 982 nM, respectively.
In the same order, the values of `Nc1nc(Nc2ccc(S(N)(=O)=O)cc2)nn1C(=O)c1ccncc1` [Cpd 29, 4-[[5-amino-1-(4-pyridinylcarbonyl)-1H-1,2,4-triazol-3-yl]amino]-benzenesulfonamide] are ~100000 nM and 70400 nM.
In the same order, the values of `Nc1nc(Nc2ccc(S(N)(=O)=O)cc2)nn1C(=O)c1cc2ccccc2s1` [Cpd 31, 4-[[5-amino-1-(benzo[b]thien-2-ylcarbonyl)-1H-1,2,4-triazol-3-yl]amino]-benzenesulfonamide] are 44 nM and 30 nM.
In the same order, the values of `Cc1nnsc1C(=O)n1nc(Nc2ccc(S(N)(=O)=O)cc2)nc1N` [Cpd 36, 4-[[5-amino-1-[(4-methyl-1,2,3-thiadiazol-5-yl)carbonyl]-1H-1,2,4-triazol-3-yl]amino]-benzenesulfonamide] are 18600 nM and 1560 nM.
Turning to `Nc1nc(Nc2ccc(S(N)(=O)=O)cc2)nn1C(=O)c1csnn1` [Cpd 37, 4-[[5-amino-1-(1,2,3-thiadiazol-4-ylcarbonyl)-1H-1,2,4-triazol-3-yl]amino]-benzenesulfonamide], the IC50 was determined as 55000 nM in test [1] and 10500 nM in test [2].
In the same order, the values of `Nc1nc(Nc2ccc(S(N)(=O)=O)cc2)nn1C(=O)Cc1cccs1` [Cpd 40, 4-[[5-amino-1-(2-thienylacetyl)-1H-1,2,4-triazol-3-yl]amino]-benzenesulfonamide] are 11100 nM and 195 nM.
The corresponding values for `Nc1nc(Nc2ccc(S(N)(=O)=O)cc2)nn1C(=O)/C=C/c1cccs1` [Cpd 42, 4-[[5-amino-1-[(2E)-1-oxo-3-(2-thienyl)-2-propenyl]-1H-1,2,4-triazol-3-yl]amino]-benzenesulfonamide] are 443 nM and 134 nM.
In the same order, the values of `Nc1nc(Nc2ccc(S(N)(=O)=O)cc2)nn1C(=O)Cc1c(F)cccc1F` [Cpd 43, 4-[[5-amino-1-[(2,6-difluorophenyl)acetyl]-1H-1,2,4-triazol-3-yl]amino]-benzenesulfonamide] are 628 nM and 87.3 nM.
In the case of `Nc1nc(Nc2ccc(S(N)(=O)=O)cc2)nn1C(=O)/C=C/c1c(F)cccc1F` [Cpd 44, 4-[[5-amino-1-[(2E)-3-(2,6-difluorophenyl)-1-oxo-2-propenyl]-1H-1,2,4-triazol-3-yl]amino]-benzenesulfonamide], the IC50 in test [1] was 2680 nM; in test [2], 522 nM.
The corresponding values for `Nc1nc(Nc2ccc(S(N)(=O)=O)cc2)nn1C(=O)C1CCCCCC1` [Cpd 45, 4-[[5-amino-1-(cycloheptylcarbonyl)-1H-1,2,4-triazol-3-yl]amino]-benzenesulfonamide] are 355 nM and 13.7 nM.
The corresponding values for `CC1CCC(C(=O)n2nc(Nc3ccc(S(N)(=O)=O)cc3)nc2N)CC1` (stereo not drawn) [Cpd 46, 4-[[5-amino-1-[(4-methylcyclohexyl)carbonyl]-1H-1,2,4-triazol-3-yl]amino]-benzenesulfonamide] are 453 nM and 35.8 nM.
The corresponding values for `CC1CCCCC1C(=O)n1nc(Nc2ccc(S(N)(=O)=O)cc2)nc1N` (stereo not drawn) [Cpd 47, 4-[[5-amino-1-[(2-methylcyclohexyl)carbonyl]-1H-1,2,4-triazol-3-yl]amino]-benzenesulfonamide] are 2520 nM and 58.6 nM.
With `CCCCC1CCC(C(=O)n2nc(Nc3ccc(S(N)(=O)=O)cc3)nc2N)CC1` (stereo not drawn) [Cpd 48, 4-[[5-amino-1-[(4-butylcyclohexyl)carbonyl]-1H-1,2,4-triazol-3-yl]amino]-benzenesulfonamide], the IC50 in test [1] was ~100000 nM; in test [2], 2600 nM.
Take `Nc1nc(Nc2ccc(S(N)(=O)=O)cc2)nn1C(=O)c1ccc(-c2ccccn2)s1` [Cpd 49, 4-[[5-amino-1-[[5-(2-pyridinyl)-2-thienyl]carbonyl]-1H-1,2,4-triazol-3-yl]amino]-benzenesulfonamide]: the IC50 in test [1], in test [2] and in test [3] was > 1000 nM each time.
Regarding `Nc1nc(Nc2ccc(S(N)(=O)=O)cc2)nn1C(=O)c1sccc1-n1cccc1` [Cpd 50, 4-[[5-amino-1-[[3-(1H-pyrrol-1-yl)-2-thienyl]carbonyl]-1H-1,2,4-triazol-3-yl]amino]-benzenesulfonamide], the IC50 was 190 nM in test [1], 120 nM in test [2] and 200 nM in test [3].
In the same order, the values of `CC(C)(C)OC(=O)/C=C/c1ccc(C(=O)n2nc(Nc3ccc(S(N)(=O)=O)cc3)nc2N)s1` [Cpd 52, 3-[5-[[5-amino-3-[[4-(aminosulfonyl)phenyl]amino]-1H-1,2,4-triazol-1-yl]carbonyl]-2-thienyl]-(2E)-2-propenoic acid-1,1-dimethylethyl ester] are 110 nM, 35 nM and 1470 nM.
For `Nc1nc(Nc2ccc(S(N)(=O)=O)cc2)nn1S(=O)(=O)c1c(F)cccc1F` [Cpd 68, 4-[[5-amino-1-[(2,6-difluorophenyl)sulfonyl]-1H-1,2,4-triazol-3-yl]amino]-benzenesulfonamide], the IC50 stood at 5140 nM in test [1] and 660 nM in test [2].
`Nc1nc(Nc2ccc(S(N)(=O)=O)cc2)n(C(=O)c2c(F)cccc2F)n1` [Cpd 122, 4-[[3-amino-1-(2,6-difluorobenzoyl)-1H-1,2,4-triazol-5-yl]amino]-benzenesulfonamide]: the IC50 was > 10000 nM in test [1] and 2210 nM in test [2].
